Drawing on US9168259B2 (GRÜNENTHAL GMBH, priority 2010, dated 2015), this text covers Emax and EC50 for 29 molecules.

This test deals with T1, KCNQ2/3 channels (Homo sapiens, UniProt O43525+O43526).
T1 construct: expressed in transfected cells
Description: Fluorescence assay using a voltage sensitive dye (fluorimetry). Type of test: cell-based. The conditions noted are these: CHO-K1 cells expressing KCNQ2/3; for Emax: CHO-K1, plateau effect relative to saturated retigabine (50 μM) = 100%, negative values = antagonistic, read-out: Fluorimetry % efficacy (retigabine = 100%); for pEC50: IC50 where % efficacy is negative, read-out: Fluorimetry EC50/IC50.

pEC50: −log10 of the molar value.

T1 sequence (O43526 whole entry): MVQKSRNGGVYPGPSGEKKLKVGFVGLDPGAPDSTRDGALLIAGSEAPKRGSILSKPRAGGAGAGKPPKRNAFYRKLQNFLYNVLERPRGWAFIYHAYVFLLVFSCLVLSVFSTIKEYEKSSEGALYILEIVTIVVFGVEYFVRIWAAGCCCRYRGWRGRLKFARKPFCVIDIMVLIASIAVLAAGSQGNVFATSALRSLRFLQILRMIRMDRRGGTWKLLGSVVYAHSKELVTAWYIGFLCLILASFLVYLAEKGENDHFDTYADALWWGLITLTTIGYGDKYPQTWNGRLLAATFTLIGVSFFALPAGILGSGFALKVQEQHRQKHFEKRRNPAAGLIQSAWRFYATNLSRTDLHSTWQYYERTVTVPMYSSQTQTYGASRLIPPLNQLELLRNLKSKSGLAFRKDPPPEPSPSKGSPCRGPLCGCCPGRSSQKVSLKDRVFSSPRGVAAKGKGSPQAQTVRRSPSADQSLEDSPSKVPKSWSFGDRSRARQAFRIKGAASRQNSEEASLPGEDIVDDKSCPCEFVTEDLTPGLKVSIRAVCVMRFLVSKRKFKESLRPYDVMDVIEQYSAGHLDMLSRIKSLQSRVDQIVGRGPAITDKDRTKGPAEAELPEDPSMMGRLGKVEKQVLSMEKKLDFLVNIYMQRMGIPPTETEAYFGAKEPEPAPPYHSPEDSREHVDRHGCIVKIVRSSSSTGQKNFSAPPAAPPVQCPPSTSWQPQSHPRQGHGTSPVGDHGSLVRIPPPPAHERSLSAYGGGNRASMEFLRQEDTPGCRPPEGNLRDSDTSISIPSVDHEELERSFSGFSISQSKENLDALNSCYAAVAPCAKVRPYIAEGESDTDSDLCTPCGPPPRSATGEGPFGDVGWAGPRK
T1 sequence (O43525 whole entry): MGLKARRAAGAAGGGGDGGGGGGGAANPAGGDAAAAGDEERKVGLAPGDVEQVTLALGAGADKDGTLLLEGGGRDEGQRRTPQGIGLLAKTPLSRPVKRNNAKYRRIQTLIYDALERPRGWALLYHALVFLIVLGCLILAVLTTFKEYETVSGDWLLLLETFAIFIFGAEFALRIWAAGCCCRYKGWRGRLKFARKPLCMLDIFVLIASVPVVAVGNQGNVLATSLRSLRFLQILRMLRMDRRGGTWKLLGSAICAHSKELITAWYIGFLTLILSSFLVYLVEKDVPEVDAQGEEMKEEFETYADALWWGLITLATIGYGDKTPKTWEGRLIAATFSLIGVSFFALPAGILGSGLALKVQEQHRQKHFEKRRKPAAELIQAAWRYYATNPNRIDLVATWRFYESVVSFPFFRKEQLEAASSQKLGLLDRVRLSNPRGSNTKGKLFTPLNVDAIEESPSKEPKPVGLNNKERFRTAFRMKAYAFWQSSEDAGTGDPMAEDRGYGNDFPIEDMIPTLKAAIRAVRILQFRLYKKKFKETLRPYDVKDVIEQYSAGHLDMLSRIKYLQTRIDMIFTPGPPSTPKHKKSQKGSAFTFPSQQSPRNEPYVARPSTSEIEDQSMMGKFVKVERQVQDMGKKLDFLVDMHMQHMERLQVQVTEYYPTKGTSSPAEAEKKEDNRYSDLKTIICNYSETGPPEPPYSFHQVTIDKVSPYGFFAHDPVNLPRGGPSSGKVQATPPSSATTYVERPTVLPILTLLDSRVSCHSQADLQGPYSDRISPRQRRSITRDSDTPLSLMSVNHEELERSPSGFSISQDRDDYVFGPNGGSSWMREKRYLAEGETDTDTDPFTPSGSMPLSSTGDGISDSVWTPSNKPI

Consider `CCSc1nc(N2CCO[C@@H](C)C2)cc(C)c1C(=O)NCCCC(C)(C)C` [Example 274, N-(4,4-Dimethyl-pentyl)-2-ethylsulfanyl-4-methyl-6-[(2S)-2-methyl-morpholin-4-yl]-pyridine-3-carboxylic acid amide], for which the Emax came out at 217% and the pEC50 is 6.63.

With `CCSc1nc(N2CCO[C@H](C)C2)cc(C)c1C(=O)NCCCC(C)(C)C` [Example 275, N-(4,4-Dimethyl-pentyl)-2-ethylsulfanyl-4-methyl-6-[(2R)-2-methyl-morpholin-4-yl]-pyridine-3-carboxylic acid amide], the Emax stood at 208% and the pEC50 is 7.20. With `Cc1cc(N2CCOCC2)nc(OCC2CC2)c1C(=O)NCc1ccc(F)cc1` [Example 276, 2-(Cyclopropyl-methoxy)-N-[(4-fluorophenyl)-methyl]-4-methyl-6-morpholin-4-yl-pyridine-3-carboxylic acid amide], the Emax was 102% and the pEC50 is 6.84.

Regarding `COC[C@H]1COCCN1c1cc(C)c(C(=O)NCc2ccc(Cl)cc2)c(C(C)C)n1` [Example 277, N-[(4-Chlorophenyl)-methyl]-2-isopropyl-6-[(3S)-3-(methoxymethyl)-morpholin-4-yl]-4-methyl-pyridine-3-carboxylic acid amide], the Emax is 129% and the pEC50 was 7.77. As to `CCC(C)Cc1nc(N2CCOCC2)cc(C)c1C(=O)NCCCC(C)(C)C` (centres unmarked) [Example 278, N-(4,4-Dimethyl-pentyl)-4-methyl-2-(2-methyl-butyl)-6-morpholin-4-yl-pyridine-3-carboxylic acid amide], the Emax came out at 225% and the pEC50 was 7.44. In the case of `CCC(C)(C)c1nc(N2CCOCC2)cc(C)c1C(=O)NCCCC(C)(C)C` [Example 279, N-(4,4-Dimethyl-pentyl)-2-(1,1-dimethyl-propyl)-4-methyl-6-morpholin-4-yl-pyridine-3-carboxylic acid amide], the Emax came out at 172% and the pEC50 was 6.37.

With `CCSc1nc(N(C)C2CCCOC2)cc(C)c1C(=O)NCCCC(C)(C)C` (centres unmarked) [Example 280, N-(4,4-Dimethyl-pentyl)-2-ethylsulfanyl-4-methyl-6-(methyl-tetrahydro-pyran-3-yl-amino)-pyridine-3-carboxylic acid amide], the Emax amounted to 165% and the pEC50 is 6.52. As to `CCSc1nc(N2CCOCC2)cc(C)c1C(=O)NCc1ccc([N+](=O)[O-])cc1` [Example 281, 2-Ethylsulfanyl-4-methyl-6-morpholin-4-yl-N-[(4-nitrophenyl)-methyl]-pyridine-3-carboxylic acid amide], the Emax was 109% and the pEC50 is 6.51. The matching figures for `Cc1cc(N2CCOC[C@H]2C)nc(C2CC2)c1C(=O)NCc1ccc(Cl)cc1` [Example 282, N-[(4-Chlorophenyl)-methyl]-2-cyclopropyl-4-methyl-6-[(3R)-3-methyl-morpholin-4-yl]-pyridine-3-carboxylic acid amide]: 182% and 7.40. In the case of `Cc1cc(N2CCOCC2)nc(OCCN(C)C)c1C(=O)NCc1ccc(Cl)cc1` [Example 283, N-[(4-Chlorophenyl)-methyl]-2-(2-dimethylaminoethyloxy)-4-methyl-6-morpholin-4-yl-pyridine-3-carboxylic acid amide], the Emax was 22%.

Consider `CCSc1nc(N2CCOCC2)cc(C)c1C(=O)NCc1ccc(F)c(OC)c1` [Example 284, 2-Ethylsulfanyl-N-[(4-fluoro-3-methoxy-phenyl)-methyl]-4-methyl-6-morpholin-4-yl-pyridine-3-carboxylic acid amide], for which the Emax amounted to 94% and the pEC50 was 6.19.

On to `COC[C@@H]1CN(c2cc(C)c(C(=O)NCc3ccc(Cl)cc3)c(C(C)C)n2)CCO1` [Example 285, N-[(4-Chlorophenyl)-methyl]-2-isopropyl-6-[(2S)-2-(methoxymethyl)-morpholin-4-yl]-4-methyl-pyridine-3-carboxylic acid amide], for which the Emax came out at 126% and the pEC50 was 6.80. Consider `CCSc1nc(N2CCOCC2)cc(C)c1C(=O)NCCC(O)C(C)C` (centres unmarked) [Example 286, 2-Ethylsulfanyl-N-(3-hydroxy-4-methyl-pentyl)-4-methyl-6-morpholin-4-yl-pyridine-3-carboxylic acid amide], for which the Emax was found to be 198% and the pEC50 was 5.76. `CCSc1nc(N2CCOCC2)cc(C)c1C(=O)NCc1ccc(OC)c(F)c1` [Example 287, 2-Ethylsulfanyl-N-[(3-fluoro-4-methoxy-phenyl)-methyl]-4-methyl-6-morpholin-4-yl-pyridine-3-carboxylic acid amide]: the Emax is 153% and the pEC50 was 6.01.

On to `CCSc1nc(N2CCOCC2)cc(C)c1C(=O)NCc1ccc(OC(F)F)cc1` [Example 288, N-[[4-(Difluoro-methoxy)-phenyl]-methyl]-2-ethylsulfanyl-4-methyl-6-morpholin-4-yl-pyridine-3-carboxylic acid amide], for which the Emax worked out at 138% and the pEC50 is 6.36. The corresponding values for `CCSc1nc(N2CCOCC2)cc(C)c1C(=O)NCc1ccc2c(c1)COC2` [Example 289, N-(1,3-Dihydro-isobenzofuran-5-yl-methyl)-2-ethylsulfanyl-4-methyl-6-morpholin-4-yl-pyridine-3-carboxylic acid amide] are 129% and 5.55. The corresponding values for `COC[C@@H]1CN(c2cc(C)c(C(=O)NCc3ccc(Cl)cc3)c(C3CC3)n2)CCO1` [Example 290, N-[(4-Chlorophenyl)-methyl]-2-cyclopropyl-6-[(2S)-2-(methoxymethyl)-morpholin-4-yl]-4-methyl-pyridine-3-carboxylic acid amide] are 136% and 6.50. The matching figures for `CCSc1nc(N2CCO[C@H](CO)C2)cc(C)c1C(=O)NCc1cccc(F)c1` [Example 291, 2-Ethylsulfanyl-N-[(3-fluorophenyl)-methyl]-6-[(2S)-2-(hydroxymethyl)-morpholin-4-yl]-4-methyl-pyridine-3-carboxylic acid amide]: 53% and 5.10. Take `CCSc1nc(N2CCO[C@@H](CO)C2)cc(C)c1C(=O)NCc1cccc(F)c1` [Example 292, 2-Ethylsulfanyl-N-[(3-fluorophenyl)-methyl]-6-[(2R)-2-(hydroxymethyl)-morpholin-4-yl]-4-methyl-pyridine-3-carboxylic acid amide]: the Emax was 32%. Turning to `CCSc1nc(N(C)CC2CCCO2)cc(C)c1C(=O)NCc1cccc(F)c1` (centres unmarked) [Example 294, 2-Ethylsulfanyl-N-[(3-fluorophenyl)-methyl]-4-methyl-6-[methyl-(tetrahydro-furan-2-yl-methyl)-amino]-pyridine-3-carboxylic acid amide], the Emax is 129% and the pEC50 is 5.99. For `CCSc1nc(N2CCOC[C@H]2C)cc(C)c1C(=O)NCc1cccc(F)c1` [Example 295, 2-Ethylsulfanyl-N-[(3-fluorophenyl)-methyl]-4-methyl-6-[(3R)-3-methyl-morpholin-4-yl]-pyridine-3-carboxylic acid amide], the Emax amounted to 188% and the pEC50 is 7.30. Consider `CCSc1nc(N2CCOC[C@@H]2C)cc(C)c1C(=O)NCc1cccc(F)c1` [Example 296, 2-Ethylsulfanyl-N-[(3-fluorophenyl)-methyl]-4-methyl-6-[(3S)-3-methyl-morpholin-4-yl]-pyridine-3-carboxylic acid amide], for which the Emax is 222% and the pEC50 was 6.72.

As to `CCSc1nc(N(C)Cc2ccc(C(F)(F)F)cc2)cc(C)c1C(=O)NCc1cccc(F)c1` [Example 297, 2-Ethylsulfanyl-N-[(3-fluorophenyl)-methyl]-4-methyl-6-[methyl-[[4-(trifluoromethyl)-phenyl]-methyl]-amino]-pyridine-3-carboxylic acid amide], the Emax turned out to be 125% and the pEC50 is 6.75. Turning to `CCSc1nc(N2CCS(=O)(=O)CC2)cc(C)c1C(=O)NCc1cccc(F)c1` [Example 298, 6-(1,1-Dioxo-[1,4]thiazinan-4-yl)-2-ethylsulfanyl-N-[(3-fluorophenyl)-methyl]-4-methyl-pyridine-3-carboxylic acid amide], the Emax was determined as 127% and the pEC50 is 5.34. Turning to `CCSc1nc(N2CCC2)cc(C)c1C(=O)NCc1cccc(F)c1` [Example 299, 6-(Azetidin-1-yl)-2-ethylsulfanyl-N-[(3-fluorophenyl)-methyl]-4-methyl-pyridine-3-carboxylic acid amide], the Emax came out at 104% and the pEC50 is 6.04.

In the case of `CCSc1nc(N(C)C2CCOC2)cc(C)c1C(=O)NCc1cccc(F)c1` (centres unmarked) [Example 301, 2-Ethylsulfanyl-N-[(3-fluorophenyl)-methyl]-4-methyl-6-(methyl-tetrahydro-furan-3-yl-amino)-pyridine-3-carboxylic acid amide], the Emax is 132% and the pEC50 is 6.12. The corresponding values for `CCSc1nc(N(C)c2ccccc2)cc(C)c1C(=O)NCc1cccc(F)c1` [Example 302, 2-Ethylsulfanyl-N-[(3-fluorophenyl)-methyl]-4-methyl-6-(N-methyl-anilino)-pyridine-3-carboxylic acid amide] are 93% and 6.56. In the case of `CCSc1nc(N2Cc3ccccc3C2)cc(C)c1C(=O)NCc1cccc(F)c1` [Example 303, 6-(2,3-Dihydro-1H-isoindol-2-yl)-2-ethylsulfanyl-N-[(3-fluorophenyl)-methyl]-4-methyl-pyridine-3-carboxylic acid amide], the Emax worked out at 54% and the pEC50 is 5.94.

`CCSc1nc(N2CCCc3ccccc32)cc(C)c1C(=O)NCc1cccc(F)c1` [Example 304, 2-Ethylsulfanyl-N-[(3-fluorophenyl)-methyl]-4-methyl-6-(1,2,3,4-tetrahydro-quinolin-1-yl)-pyridine-3-carboxylic acid amide]: the Emax was 81% and the pEC50 is 6.46.
